# Data taken from patent US9814714B2, “Kinase modulation, and indications therefor” (Plexxikon Inc., priority 2015, dated 2017).
# Columns and labels:
# K562 cells = test: Growth assay (CellTiter-Glo), K562; assay type: cell-based; details: Homo sapiens, K562, 72 h; chronic myeloid leukemia; BRAF WT, RAS WT; 3 days
# Description: (§1) In order to determine the effects of Formula I on proliferation, a growth assay was established using melanoma cells (A375 and COLO829) and colorectal carcinoma cells (COLO205, HT-29) which each express the BRAFV600E mutation. To show selectivity over wild-type BRAF, several BRAF wild-type cell lines (K562, NOMO-1, MV-4-11 and ML-2) were also examined in the growth assay. The growth assay implemented the Promega CellTiter-Glo Luminescent Cell viability assay, which gives a luminescent readout that is proportional to the amount of ATP present in a cell sample. As ATP levels directly correlate with the number of viable cells, the luminescent signal can be used to determine the potency of Formula I to block the proliferation of the cell lines of interest.
# (§2) 1. 3,000 cells were plated in each well for cell lines A375, COLO205, COLO829, HT-29, and SK-MEL-3. 25,000 cells were plated in each well for cell lines K562, ML-2, MV-4-11, and
# (§3) NOMO-1 of a 96-well tissue-culture-treated plate (Corning #3610) in a 50 μL volume. Cells were incubated overnight at 37° C.
# (§4) 2. Each test compound was plated as an 8-point titration, using 1:3 dilutions in DMSO. The maximum concentration was about 5 mM. Dilute DMSO and test compound of Formula I 1:250 in growth media.
# 3. […]
# (§5) 4. […] Luminescence was measured on a Tecan Safire plate reader. […]
# MV-4-11 cells = test: Growth assay (CellTiter-Glo), MV-4-11; assay type: cell-based; details: Homo sapiens, MV4-11, 72 h; biphenotypic B myelomonocytic leukemia; BRAF WT, RAS WT; 3 days
# Description: as §1, §2, §3, §4
# 3. […]
# as §5
# [1] = biological target: NIH/3T3 cells stably expressing KIAA1549-BRAF fusions (Homo sapiens, UniProt P15056); test: BRAF fusion xenograft tumor growth; assay type: in vivo, balb/c nu/nu mice; details: all three xenografts (three of the four KIAA1549-BRAF fusions); flank of balb/c nu/nu mice
# NIH/3T3 cells stably expressing KIAA1549-BRAF fusions, sequence (P15056 448-766 limits assumed): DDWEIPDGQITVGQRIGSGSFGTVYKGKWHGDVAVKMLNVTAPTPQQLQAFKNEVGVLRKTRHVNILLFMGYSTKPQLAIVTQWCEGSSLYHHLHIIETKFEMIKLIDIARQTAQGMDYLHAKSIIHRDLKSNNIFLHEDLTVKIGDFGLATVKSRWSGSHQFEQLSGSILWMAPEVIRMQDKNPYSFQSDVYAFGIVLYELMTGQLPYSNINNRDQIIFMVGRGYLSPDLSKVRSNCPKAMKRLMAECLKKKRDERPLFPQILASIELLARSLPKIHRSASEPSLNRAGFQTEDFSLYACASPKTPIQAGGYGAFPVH
# Procedure: NIH/3T3 (ATCC® CRL-1658™) cells stably expressing KIAA1549-BRAF fusions (Fusion-1, Fusion-2, Fusion-3, and Fusion-4) were injected into the flank of balb/c nu/nu mice. Tumor growth was measured with calipers. Ellipsoid tumor volume was calculated using the following formula: volume=½·length·width^2.
# BRAF_V600K = BRAF_V600K (Homo sapiens, UniProt P15056, V600K); test: RAF kinase biochemical assay, BRAF V600K; details: Table 3; ATP 100 μM
# BRAF_V600K, sequence (P15056 448-723 V600K): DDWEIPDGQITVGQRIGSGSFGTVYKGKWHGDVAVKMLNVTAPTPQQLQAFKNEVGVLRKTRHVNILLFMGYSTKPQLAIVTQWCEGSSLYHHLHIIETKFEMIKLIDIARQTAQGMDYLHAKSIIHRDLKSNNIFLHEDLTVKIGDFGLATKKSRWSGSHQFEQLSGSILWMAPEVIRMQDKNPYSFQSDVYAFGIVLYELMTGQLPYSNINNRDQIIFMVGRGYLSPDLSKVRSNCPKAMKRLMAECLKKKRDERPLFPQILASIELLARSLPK
# Procedure: (§6) BRAF proteins were produced in insect cells at Plexxikon Inc. as N-terminally His-tagged fragments encompassing the kinase domain.
# (§7) 1) Test compounds in DMSO were serially diluted and plated into 384-well assay plates at 1 μL/well.
# (§8) 2) Added were 15 μL/well of RAF enzyme and biotinylated-MEK1 substrate in kinase buffer.
# (§9) 3) Added were 4 μL of ATP (500 μM) in kinase buffer.
# (§10) 5) After a brief spin down, the plate was incubated at about room temperature for 40-50 minutes. 6) Added was 5 μL of Stop buffer at final EDTA 20 mM; anti-phospho-MEK1 1:2,500; donor/acceptor beads 3 μg/mL. 7) After brief spin down, the plate was incubated at room temperature for about 3 hours. 8) The plate was read on the Envision multilabel plate reader (Perkin Elmer). […] 2. Results
# BRAF_V600A = BRAF_V600A (Homo sapiens, UniProt P15056, V600A); test: RAF kinase biochemical assay, BRAF V600A; details: Table 3; ATP 100 μM
# BRAF_V600A, sequence (P15056 432-726 V600A): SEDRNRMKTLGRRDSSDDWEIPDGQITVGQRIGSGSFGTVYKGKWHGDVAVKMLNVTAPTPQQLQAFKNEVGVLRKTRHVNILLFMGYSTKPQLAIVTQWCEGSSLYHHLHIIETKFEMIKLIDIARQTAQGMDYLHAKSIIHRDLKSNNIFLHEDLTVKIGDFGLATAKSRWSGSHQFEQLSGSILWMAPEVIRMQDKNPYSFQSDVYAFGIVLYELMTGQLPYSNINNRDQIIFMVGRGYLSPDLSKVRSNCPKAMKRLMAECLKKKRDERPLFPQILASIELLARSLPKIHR
# Procedure: as §6, §7, §8, §9, §10
# HT-29 cells = test: Growth assay (CellTiter-Glo), HT-29; assay type: cell-based; details: Homo sapiens, HT-29, 72 h; colorectal adenocarcinoma; BRAF V600E/WT, RAS WT; 3 days
# Description: as §1, §2, §3, §4
# 3. […]
# as §5
# ML-2 cells = test: Growth assay (CellTiter-Glo), ML-2; assay type: cell-based; details: Homo sapiens, ML-2, 72 h; acute myelomonocytic leukemia; BRAF WT, KRAS-A146T; 3 days
# Description: as §1, §2, §3, §4
# 3. […]
# as §5
# BRAF_V600M = BRAF_V600M (Homo sapiens, UniProt P15056, V600M); test: RAF kinase biochemical assay, BRAF V600M; details: Table 3; ATP 100 μM
# BRAF_V600M, sequence (P15056 432-726 V600M): as the sequence (P15056 432-726 V600A) above, with A169M counted along it
# Procedure: as §6, §7, §8, §9, §10
# BRAF_V600G = BRAF_V600G (Homo sapiens, UniProt P15056, V600G); test: RAF kinase biochemical assay, BRAF V600G; details: Table 3; ATP 100 μM
# BRAF_V600G, sequence (P15056 432-726 V600G): as the sequence (P15056 432-726 V600A) above, with A169G counted along it
# Procedure: as §6, §7, §8, §9, §10
# NOMO-1 cells = test: Growth assay (CellTiter-Glo), NOMO-1; assay type: cell-based; details: Homo sapiens, NOMO-1, 72 h; acute myeloid leukemia; BRAF WT, KRAS-G13D; 3 days
# Description: as §1, §2, §3, §4
# 3. […]
# as §5
# [2] = test system: pERK in A431 cells (over-expression of EGFR); test: pERK levels in A431; assay type: cell-based; details: human SCC cell line
# Procedure: (§11) The compound of Formula II was also evaluated in the human SCC cell line A431 and the human breast adenocarcinoma cell line SKBR3 as these cells achieve MAPK pathway activation by upstream signals feeding into RAS (through over-expression of EGFR and HER2, respectively).
# (§12) Phospho-ERK AlphaScreen® assay: The degree of ERK phosphorylation was determined using an AlphaScreen® assay where an increase in ERK1/2 phosphorylation at Thr202/Tyr204 brought the donor and acceptor AlphaScreen® beads into close proximity, generating a signal for quantification. To determine the effects of compound treatment on phosphorylation of ERK1/2, cells were plated in a 96-well plate and treated with an 8-point titration of compound for one hour at 37° C. before lysis. To detect pERK, cell lysates were incubated with streptavidin-coated AlphaScreen® donor beads, anti-mouse IgG AlphaScreen® acceptor beads, a biotinylated anti-ERK1/2 rabbit antibody, and a mouse antibody that recognizes ERK1/2 only when it is phosphorylated on Thr202 and Tyr204. […] An increase in ERK1/2 phosphorylation at Thr202/Tyr204 brings the donor and acceptor AlphaScreen® beads into close proximity, generating a signal that can be quantified on an EnVision reader (Perkin Elmer).
# (§13) Phospho-ERK immunoblot analysis: Western blots were performed by standard techniques and analyzed on an Odyssey Infrared Scanner (Li-COR Biosciences). […]
# [3] = test system: pERK in SKBR3 cells (over-expression of HER2); test: pERK levels in SKBR3; assay type: cell-based; details: human breast adenocarcinoma cell line
# Procedure: as §11, §12, §13
SMILES,IC50 (K562 cells),IC50 (MV-4-11 cells),Inhibition of xenograft growth (tumor volume) [1],IC50 (BRAF_V600K),IC50 (BRAF_V600A),IC50 (HT-29 cells),IC50 (ML-2 cells),IC50 (BRAF_V600M),IC50 (BRAF_V600G),IC50 (NOMO-1 cells),Change of pERK levels in A431 (in words) [2],Change of pERK levels in SKBR3 (in words) [3]
"O=C(c1c(F)ccc(NS(=O)(=O)N2CC[C@@H](F)C2)c1F)c1c[nH]c2ncc(-c3cnc(C4CC4)nc3)cc12 [Formula I, (3R)—N-[3-[5-(2-cyclopropylpyrimidin-5-yl)-1H-pyrrolo[2,3-b]pyridine-3-carbonyl]-2,4-difluorophenyl]-3-fluoropyrrolidine-1-sulfonamide]",> 10000 nM,> 10000 nM,≥ 50%,3.9 nM,14.2 nM,840 nM,> 10000 nM,9.8 nM,6.3 nM,> 10000 nM,,
"CCN(C)S(=O)(=O)Nc1ccc(F)c(C(=O)c2c[nH]c3ncc(-c4cnc(C5CC5)nc4)cc23)c1F [Formula II, 5-(2-cyclopropylpyrimidin-5-yl)-3-[3-[[ethyl(methyl)sulfamoyl]amino]-2,6-difluoro-benzoyl]-1H-pyrrolo[2,3-b]pyridine]",,,,,,,,,,,did not increase pERK levels,did not increase pERK levels
